Measured values as given in ChEMBL document CHEMBL1147282, “3 beta-O-palmityl longispinogenin from Trichocereus chilensis” (J Nat Prod, 1989).

Key:
[1] = tested on: A549; assay: Cytotoxicity against human A549 cells; format: functional; settings: read-out: ED50 (the source's name)
[2] = tested on: MCF7; assay: Cytotoxicity against human MCF7 cells; format: functional; settings: read-out: ED50 (the source's name)
[3] = tested on: HT-29; assay: Cytotoxicity against human HT-29 cells; format: functional; settings: read-out: ED50 (the source's name)
[4] = tested on: Artemia; assay: Toxicity in brine shrimp; format: organism-based; settings: in vivo

## CCCCCCCCCCCCCCCC(=O)O[C@H]1CC[C@]2(C)[C@H]3CC=C4[C@@H]5CC(C)(C)CC[C@]5(CO)[C@@H](O)C[C@@]4(C)[C@]3(C)CC[C@H]2C1(C)C
[1]
  EC50: > 10 µg/mL
[2]
  EC50: > 10 µg/mL
[3]
  EC50: > 10 µg/mL
[4]
  LC50: > 1000 ppm
